Source: EP0953357A1, “NEPHROTROPIC DRUGS” (Drug Delivery System Institute, Ltd., priority 1997, dated 1998)
Where two headings read alike, the source gives them in different places. Each block holds one molecule with its values, some of them ahead of it.

Legend:
[1] = Autoradiography of sugar-modified AVPs in the kidney (Test 2); format: in vivo; conditions: rats, 5 min after administration, compared with Gal-C8-O-AVP and AVP
Procedure: Sugar-modified AVPs were administered to rats. Five min after the administration, accumulation sites in the kidney were examined by autoradiography.

[2] = Distribution of sugar-modified AVP in organs (Test 1); format: in vivo, male SD rats; conditions: rats, i.v. 1 nmol/kg; for renal selectivity: 5 min after administration, concentration in organs and organ clearance as index (Figs. 1 and 2)
Procedure: (§1) The organ clearance was determined by the following equation.
The organ clearance under the above experimental conditions is considered as a measure of the speed at which the compound is incorporated into the organs. The kidney is an organ which functions to perform glomerular filtration for the production of urine. The renal clearance of low-molecular weight compounds, which are likely to undergo glomerular filtration, is generally larger than the clearance for other organs. Further, under the above experimental conditions, it was estimated from the results on ^14C-labeled inulin that the incorporation of about 0.6 ml/min/g was carried out by glomerular filtration. Larger values indicate the incorporation of drugs into the kidney through blood vessels in addition to the glomerular filtration.

[3] = Pharmacokinetic test of rats (Glc-S-C5-Ala-DEX) (Test 10 (1)); format: in vivo; conditions: male, rat, iv, Group B, i.v. 100 nmol/kg, n = 3, average ± SD
Description: For both the groups, the dose was 100 nmol/kg.
Plasma was fractionated from the collected blood according to the conventional method. Further, the kidney and the liver were extracted. The plasma was deprotenized, and the organs were homogenized and deprotenized, followed by separation by reversed phase liquid chromatography. Thereafter, Glc-S-C5-Ala-DEX and dexamethasone were detected and quantitatively determined by UV detector.

[4] = Renal selectivity of modified anti-inflammatory steroid, part 1: total radioactivity in organs (Test 7); conditions: rats, i.v. 10 nmol/kg, 5 min
[5] = Renal selectivity (organ distribution) of thioglucoside-modified products (Test 6)
Procedure: as §1
Organ distribution was studied on Glc-S-C8 and, in addition, thioglucoside modification products of AVP, tryptamine, NBD as a fluorescent dye, doxorubicin as an anticancer agent and the like. Glc-S-C8 (the labeled product was prepared by catalytic exchange with ^3H gas; the specific activity 40.7 GBq/mmol), AVP derivatives, and tryptamine derivatives were converted to ^3H-labeled product and then studied on organ selectivity in the same manner as in Test 1. For the NBD derivatives, an experiment on distribution was carried out under conditions of dose 10 nmol/kg and 3 min. The vital sample was deproteinized with acetonitrile, subjected to separation by reversed phase liquid chromatography, and then quantitatively determined by fluorescence detection. DXR and derivatives thereof were administered at a dose of 50 nmol/kg, and, 3 min after the administration, the distribution was detected in the same manner as used for the NBD derivatives.

[6] = rat, in vivo
[7] = rats, ^3H-labeled product, same manner as Test 1 (i.v. 1 nmol/kg, 5 min)

concentration in cortical part and in the outer layer of the outer band in the medulla [1]: clearly higher
concentration in the medulla [1]: lower
Renal clearance ([2]; 5 min, Fig. 2): 2.43 mL/min/g
renal selectivity [2]: high renal selectivity
Structure (SMILES): N=C(N)NCCC[C@H](NC(=O)[C@@H]1CCCN1C(=O)[C@@H]1CSSC[C@H](NC(=O)CCCCCCCCO[C@@H]2O[C@H](CO)[C@@H](O)[C@H](O)[C@H]2O)C(=O)N[C@@H](Cc2ccc(O)cc2)C(=O)N[C@@H](Cc2ccccc2)C(=O)N[C@@H](CCC(N)=O)C(=O)N[C@@H](CC(N)=O)C(=O)N1)C(=O)NCC(N)=O [Glc-O-C8-AVP]

concentration at 5 min ([3]; kidney, read-out: Concentration of dexamethasone: Kidney): 203 ± 39.3 nM
concentration at 5 min ([3]; liver, read-out: Concentration of dexamethasone: Liver): 930 ± 119 nM
concentration at 5 min ([3]; plasma, read-out: Concentration of dexamethasone: Plasma): 116 ± 13.6 nM
Total conc. of dexamethasone in organ: Adrenal [4]: 24.65±0.95 pmol/g tissue
Total conc. of dexamethasone in organ: Blood [4]: 7.61±0.49 pmol/g tissue
Total conc. of dexamethasone in organ: Fat [4]: 2.74±1.12 pmol/g tissue
Total conc. of dexamethasone in organ: Heart [4]: 14.86±1.05 pmol/g tissue
Total conc. of dexamethasone in organ: Kidney [4]: 22.36±0.80 pmol/g tissue
Total conc. of dexamethasone in organ: Liver [4]: 65.90±12.61 pmol/g tissue
Total conc. of dexamethasone in organ: Lung [4]: 16.49±1.57 pmol/g tissue
Total conc. of dexamethasone in organ: Spleen [4]: 11.04±0.25 pmol/g tissue
Structure (SMILES): C[C@@H]1C[C@H]2[C@@H]3CCC4=CC(=O)C=C[C@]4(C)[C@@]3(F)[C@@H](O)C[C@]2(C)[C@@]1(O)C(=O)CO [dexamethasone]

Renal clearance ([5]; rats, DXR and derivatives: dose 50 nmol/kg, 3 min after administration): 0.54 ± 0.10 mL/min/g
Structure (SMILES): COc1cccc2c1C(=O)c1c(O)c3c(c(O)c1C2=O)C[C@@](O)(C(=O)CO)C[C@@H]3O[C@H]1C[C@H](N)[C@H](O)[C@H](C)O1 [DXR, doxorubicin]

Hepatic clearance [6]: 0.08 ± 0.00 mL/min/g
Renal clearance [6]: 1.05 ± 0.05 mL/min/g
Structure (SMILES): CC[C@H](C)[C@@H]1NC(=O)[C@H](Cc2ccc(O)cc2)NC(=O)[C@@H](NC(=O)CCCCCCCCO[C@@H]2O[C@H](CO)[C@@H](O)[C@H](O)[C@H]2O)CSSC[C@@H](C(=O)N2CCC[C@H]2C(=O)N[C@@H](CC(C)C)C(=O)NCC(N)=O)NC(=O)[C@H](CC(N)=O)NC(=O)[C@H](CCC(N)=O)NC1=O [Glc-O-C8-Oxy]

Structure (SMILES): N=C(N)NCCC[C@H](NC(=O)[C@@H]1CCCN1C(=O)[C@@H]1CSSC[C@H](NC(=O)CCCCCCCCO[C@@H]2O[C@H](CO)[C@H](O)[C@H](O)[C@H]2O)C(=O)N[C@@H](Cc2ccc(O)cc2)C(=O)N[C@@H](Cc2ccccc2)C(=O)N[C@@H](CCC(N)=O)C(=O)N[C@@H](CC(N)=O)C(=O)N1)C(=O)NCC(N)=O [Gal-O-C8-AVP]
renal selectivity [2]: the renal selectivity was the same as that for AVP

Structure (SMILES): NCCc1c[nH]c2ccccc12 [Tryptamine]
Conc. in kidney [5, 7]: 3.5±0.3 % of dose/g
Renal clearance [5, 7]: 0.63 ± 0.07 mL/min/g

renal selectivity [2]: high renal selectivity
Structure (SMILES): N=C(N)NCCC[C@H](NC(=O)[C@@H]1CCCN1C(=O)[C@@H]1CSSC[C@H](NC(=O)CCCCCCCCO[C@H]2C[C@@H](O)[C@H](O)[C@@H](CO)O2)C(=O)N[C@@H](Cc2ccc(O)cc2)C(=O)N[C@@H](Cc2ccccc2)C(=O)N[C@@H](CCC(N)=O)C(=O)N[C@@H](CC(N)=O)C(=O)N1)C(=O)NCC(N)=O [2dGlc-O-C8-AVP]

Hepatic clearance [6]: 0.14 ± 0.02 mL/min/g
Renal clearance [6]: 3.59 ± 0.17 mL/min/g
Structure (SMILES): CC[C@H](C)[C@@H]1NC(=O)[C@H](Cc2ccc(O)cc2)NC(=O)[C@@H](NC(=O)CCCCCCCCO[C@@H]2O[C@H](CO)[C@@H](O)[C@H](O)[C@@H]2O)CSSC[C@@H](C(=O)N2CCC[C@H]2C(=O)N[C@@H](CC(C)C)C(=O)NCC(N)=O)NC(=O)[C@H](CC(N)=O)NC(=O)[C@H](CCC(N)=O)NC1=O [Man-O-C8-Oxy]

formation of free DXR in plasma and kidney ([5]; rat, in vivo): could be confirmed
Structure (SMILES): COc1cccc2c1C(=O)c1c(O)c3c(c(O)c1C2=O)C[C@@](O)(C(=O)COC(=O)CCCCCCCCS[C@@H]1O[C@H](CO)[C@@H](O)[C@H](O)[C@H]1O)C[C@@H]3O[C@H]1C[C@H](N)[C@H](O)[C@H](C)O1 [Glc-S-C8-COO-DXR, 14-[9-(1-thio-β-D-glucopyranosyl)nonanoyl]doxorubicin]

Structure (SMILES): N=C(N)NCCC[C@H](NC(=O)[C@@H]1CCCN1C(=O)[C@@H]1CSSC[C@H](NC(=O)CCCCCCCCO[C@H]2O[C@H](CO)[C@@H](O)[C@H](O)[C@@H]2O)C(=O)N[C@@H](Cc2ccc(O)cc2)C(=O)N[C@@H](Cc2ccccc2)C(=O)N[C@@H](CCC(N)=O)C(=O)N[C@@H](CC(N)=O)C(=O)N1)C(=O)NCC(N)=O [Man(α)-O-C8-AVP]
renal selectivity [2]: the renal selectivity was the same as that for AVP
